Calls of active or inactive are those of the source.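 How the source made its calls: active means plate Z score at or below -3, or inhibition of at least 30% at 20 µM; inactive means the rest.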
Assay: compounds lowering EGFP fluorescence in F442A cells, dose response, counter-screen for p/CIP destabilizer project (AID 2005);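 further: cells express EGFP alone from a CMV promoter as a counter screen for p/CIP-EGFP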
Conditions: F442A EGFP cells, EGFP fluorescence, 16 h, stronger effect = higher value

Row | SMILES | inhibition (EGFP decrease, at 10 µM) | inhibition (at 20 µM)
1 | O=C(Nc1cccc(-c2csc(Nc3ccc(Cl)cc3)n2)c1)c1cc([N+](=O)[O-])cc(C(F)(F)F)c1 | 32.2% | 21.2% (inactive)
2 | Cc1cc(NC(=O)CSCC(=O)OCc2nnc(-c3ccccc3)o2)no1 | -7.9% | -12.8% (inactive)
3 | O=C(CS(=O)CC(=O)Nc1ccccc1-c1ccccc1)Nc1ccc(F)cc1 (stereo not given) | -0.9% | 13.9% (inactive)
4 | Cc1ccc(-n2ncc(Br)c(Br)c2=O)cc1 | 9.4% | -1.3% (inactive)
5 | CCC1=C(OC(=O)N(CC)CC)N2C(=O)OC(=NCC(=O)OC)[C@]2(Cc2ccccc2)[C@H]2C1=CC[C@H]1C(=O)N(c3ccccc3)C(=O)[C@H]12 | 8.2% | 2% (inactive)
6 | CCOc1ccc(C(=O)N2CCc3cc(OC)c(OC)cc3C2)cc1OCC | 9.7% | 4.7% (inactive)
7 | CCN(C(=O)COC(=O)c1cc(NS(=O)(=O)c2ccc(Cl)c([N+](=O)[O-])c2)ccc1O)C1CCCCC1 | 13.6% | 6.6% (inactive)
8 | Cc1cc2c(c(Sc3ccccc3)n1)C(=O)OC2 | -4% | -3.5% (inactive)
9 | Cc1nc(SCC(=O)Nc2cc(C)on2)c2c(=O)n(C)c(=O)n(C)c2n1 | 10% | 6.6% (inactive)
10 | O=C(CN1CCN(Cc2ccccc2Cl)C1=O)NCc1ccco1 | 17.1% | 31.5%
11 | CC(=O)Nc1ccc2c(c1)nc(CCNC(=O)c1ccco1)n2C | 1.2% | 13% (inactive)
12 | O=C1C2C3C=CC(C2C(=O)N1c1cccc(O)c1)C1C2C(=O)N(c4cccc(O)c4)C(=O)C2C31 (stereo not given) | -3% | 12.3% (inactive)
13 | CC(C)(C)NC(=O)c1ccc2c(c1)N(CC(=O)N1CCN(c3ccc(F)cc3)CC1)C(=O)C(C)(C)O2 | 8.7% | 12.7% (inactive)
14 | COc1ccc(CCNC(=O)C2CCN(S(=O)(=O)c3cccs3)CC2)cc1OC | 34.9% | 25.1% (inactive)
15 | COc1cccc(CN2CC(C(=O)N(C)Cc3nc(C)cs3)CCC2=O)c1 (stereo not given) | -5.9% | 16.2% (inactive)
16 | CC(C)(C)n1nc2c(c1NC(=O)c1cc(Cl)ccc1[N+](=O)[O-])CS(=O)(=O)C2 | 10.5% | 22.6% (inactive)
17 | O=S(=O)(NCC1CCCO1)c1cccc(C(F)(F)F)c1 (stereo not given) | 7.7% | 11.7% (inactive)
18 | O=C(O)C1=C[C@H](c2cccs2)C[C@H](OCc2ccc(CO)cc2)O1 | 3.6% | -7.3% (inactive)
19 | CCOC(=O)N1CCN(c2ccc(C(C)=O)cc2F)CC1 | 10.1% | -6.2% (inactive)
20 | CCOc1ccc(N(CC(=O)Nc2cccc(Br)c2)S(C)(=O)=O)cc1 | 36.5% | 12.4% (inactive)
21 | COc1ccc(CNC2CCCCC2)cc1 | 26% | 20.4% (inactive)
22 | C/C(N)=C(/C#N)C(=O)CSc1nnnn1-c1ccc(C)cc1C | 18% | 3.2% (inactive)
23 | Cc1ccc(NC(=O)N2CCCC2C(=O)NCc2ccc3c(c2)OCO3)cc1 (stereo not given) | -10.4% | -0.3% (inactive)
24 | COc1ccc(N2CCN(C(=O)CNS(=O)(=O)c3ccc(Br)s3)CC2)cc1 | 31% | 28.5% (inactive)
25 | CCOc1ccc(CC(=O)Nc2ccc(S(=O)(=O)Nc3cc(C)on3)cc2)cc1OCC | 7.6% | 10.1% (inactive)
26 | CC(Oc1ccc(F)cc1)C(=O)/C=C\N(C)C (stereo not given) | 8.4% | 0% (inactive)
27 | CCOC(=O)N1CCN(S(=O)(=O)c2cc(OCC)ccc2OCC)CC1 | -19.2% | 5.4% (inactive)
28 | C[C@H](NC(=O)OCc1ccccc1)c1nnc([C@H](C)NC(=O)OCc2ccccc2)o1 | -3.8% | -5.1% (inactive)

Row | SMILES | inhibition (EGFP decrease, at 10 µM) | inhibition (at 20 µM)
29 | CCc1ccc(CN2CCC(n3nccc3NC(=O)c3ccccc3C)CC2)cc1 | 22.7% | -0.4% (inactive)
30 | CCOC(=O)c1c(C)oc2c(F)c(F)c(F)c(F)c2c1=O | 32.1% | 19.8% (inactive)
31 | Cc1nc(NC(=O)CN2CCN(c3ccccc3F)CC2)sc1C(=O)N(C)C | 17% | 24.4% (inactive)
32 | CCOCCCNC(=O)c1cc2c(=O)n3cccc(C)c3nc2s1 | -2.1% | 12.9% (inactive)
33 | CCCCn1c(SCC(=O)NCc2ccco2)nc2c(sc3ccccc32)c1=O | 20.5% | 13.2% (inactive)
34 | COC(=O)c1ccc(-c2ccc(CNCC(O)c3ccccc3)o2)cc1 (stereo not given) | 8.8% | 7.1% (inactive)
35 | COc1ccccc1CN1CC(C(=O)NCc2cc(F)cc(C(F)(F)F)c2)CCC1=O (stereo not given) | 4.7% | 12.5% (inactive)
36 | O=C(OCC(=O)N1CCC(Cc2ccccc2)CC1)c1ccccc1 | -1.5% | -16% (inactive)
37 | Cc1cc2nnc(SCC(=O)N3CCOCC3)n2c2ccccc12 | 26.4% | 17.9% (inactive)
38 | CCOC(=O)C(C)On1c(-c2ccccc2)nc2ccc([N+](=O)[O-])cc21 (stereo not given) | 5.1% | 25% (inactive)
39 | O=C(Nc1ccc(N2CCOCC2)c(Cl)c1)c1ccc(-n2cnnc2)cc1 | 15.2% | 4.8% (inactive)
40 | Cc1nc(-c2ccc(C(=O)Nc3cccc(F)c3)cc2)cs1 | 30.7% | 32.8%
41 | CCN(Cc1ccccc1)C(=O)C(=O)c1cn(CC(=O)N2CCCC2)c2ccccc12 | 19.4% | 28.2% (inactive)
42 | CC(O)CNc1nc2c(c(=O)n(C)c(=O)n2C)n1Cc1cccc(Br)c1 (stereo not given) | 24.8% | 12.7% (inactive)
43 | NC(=O)c1cccn(Cc2ccc(C(F)(F)F)cc2)c1=O | 6.5% | 5.4% (inactive)
44 | CC1CN(C(=O)c2cn3ccccc3n2)CC(C)O1 (stereo not given) | 9.8% | 22.5% (inactive)
45 | CCCCC(=O)NC(c1ccccc1Cl)c1ccc2cccnc2c1O (stereo not given) | 3.1% | -6.1% (inactive)
46 | N/C(=N\OC(=O)c1ccc(Cl)cc1Cl)c1ccccc1 | 10.4% | 1.3% (inactive)
47 | Cc1cc(C)cc(N2C(=O)N(c3ccccc3C)C3CS(=O)(=O)CC32)c1 (stereo not given) | 9.1% | 28.7% (inactive)
48 | COc1cc(CNCCCO)ccc1OCC(=O)NC(C)(C)C | -2.3% | 22.9% (inactive)
49 | O=S(=O)(NCc1cn2ccccc2n1)c1cccs1 | 8.4% | -3.1% (inactive)
50 | CCn1c(COc2ccc(=O)n(-c3ccccc3)n2)nnc1SCc1ccccc1C | 4.8% | 20.9% (inactive)
51 | CC(=O)Nc1ccc(NC2=C(Cl)C(=O)c3ccccc3C2=O)cc1 | 3% | 0.6% (inactive)
52 | Cc1onc(-c2ccccc2Cl)c1C(=O)NCc1cccnc1 | 22.1% | 15.9% (inactive)
53 | Cn1c(NC(=O)c2cccnc2)nc2ccccc21 | -33.6% | -0.5% (inactive)
54 | c1ccc(-c2cn3c(n2)CCc2ccc4cccnc4c2-3)cc1 | -17.2% | -5% (inactive)
55 | Cc1c(NC(=O)CSc2ncccn2)c(=O)n(-c2ccccc2)n1C | 15.5% | 17.7% (inactive)
